Assay results: ChEMBL document CHEMBL3992566, “Development and Biological Evaluation of a Photoactivatable Small Molecule Microtubule-Targeting Agent” (ACS Med Chem Lett, 2017)
Active and inactive are the calls of the source. The calls are words filed in the database; no cut-off is given here.

Experiments:
[1] = Drug metabolism in human U251 cells assessed as DMNB release up to 100 uM under UV irradiation of 1800 mW for 1 min measured after 72 hrs; assay type: ADME, cell-based; details: u-251, 72 h
[2] = tested on: U-251; assay: Phototoxicity against human U251 cells assessed as reduction in cell viability up to 100 uM under UV irradiation of 1800 mW for 1 min measured after 72 hrs by Cell-Titer Blue assay; assay type: functional, cell-based
[3] = organism: Sus scrofa; assay: Inhibition of porcine brain tubulin polymerization at 3 uM by fluorescence assay
[4] = Effect on colchicine binding to porcine brain tubulin up to 60 uM after 90 mins under dark condition by fluorescence assay; assay type: ADME, Sus scrofa; details: pig, 1.5 h
[5] = Photoactivation of prodrug assessed as 4-(4-(2-fluoropyridin-3-yl)phenyl)-N-(4-hydroxyphenyl)butanamide release at 1 mM under UV irradiation of 5400 mW after 1 min by HPLC-MS analysis
[6] = Induction of apoptosis in patient-derived RN1 cells assessed as early apoptotic cells at 5 uM after 48 hrs under UV irradiation of 1800 mW for 30 secs by Annexin V staining based assay relative to control; assay type: functional, Homo sapiens
[7] = Induction of apoptosis in patient-derived RN1 cells assessed as late apoptotic cells at 5 uM after 48 hrs under UV irradiation of 1800 mW for 30 secs by Annexin V staining based assay relative to control; assay type: functional, Homo sapiens
[8] = tested on: U-251; assay: Phototoxicity against human U251 cells assessed as reduction in cell viability under UV irradiation of 1800 mW for 1 min measured after 72 hrs by Cell-Titer Blue assay; assay type: functional, cell-based; details: U-251, light or radiation study
[9] = organism: Homo sapiens; assay: Disruption of microtubule organization in human U251 cells at 5 uM after 24 hrs under UV irradiation of 1800 mW for 5 mins by DAPI staining based immunofluorescence assay; assay type: cell-based
[10] = Phototoxicity against patient-derived RN1 cells assessed as reduction in cell viability under UV irradiation of 1800 mW for 30 secs measured after 72 hrs by Cell-Titer Blue assay; assay type: functional, cell-based; details: Homo sapiens, RN1, light or radiation study
[11] = Effect on kinetics of porcine brain tubulin polymerization at 50 uM under dark condition by fluorescence assay; assay type: ADME, Sus scrofa; details: pig
[12] = organism: Homo sapiens; assay: Disruption of microtubule organization in human U251 cells assessed as cell rounding at 5 uM after 24 hrs under UV irradiation of 1800 mW for 5 mins by DAPI staining based immunofluorescence assay
[13] = Induction of apoptosis in patient-derived RN1 cells at 5 uM after 48 hrs under dark condition by Annexin V staining based assay (reference value: 8.1%); assay type: cell-based; details: human, rn1, 48 h
[14] = Disruption of microtubule organization in human U251 cells at 5 uM after 24 hrs under dark condition by DAPI staining based immunofluorescence assay; assay type: ADME, cell-based
[15] = Induction of apoptosis in patient-derived RN1 cells assessed as necrotic cells at 5 uM after 48 hrs under UV irradiation of 1800 mW for 30 secs by Annexin V staining based assay relative to control; assay type: functional, Homo sapiens
[16] = Disruption of microtubule organization in human U251 cells assessed as changes in cell morphology at 5 uM after 24 hrs under dark condition by DAPI staining based immunofluorescence assay; assay type: ADME
[17] = Induction of apoptosis in patient-derived RN1 cells assessed as live cells at 5 uM after 48 hrs under UV irradiation of 1800 mW for 30 secs by Annexin V staining based assay relative to control; assay type: functional, Homo sapiens
[18] = organism: Sus scrofa; assay: Inhibition of porcine brain tubulin polymerization at 50 uM under UV irradiation of 1800 mW for 5 mins by fluorescence assay
[19] = Dark toxicity against patient-derived RN1 cells assessed as reduction in cell viability after 72 hrs by Cell-Titer Blue assay; assay type: cell-based; details: human
[20] = Photoactivation of prodrug assessed as time required to release maximum concentration of 4-(4-(2-fluoropyridin-3-yl)phenyl)-N-(4-hydroxyphenyl)butanamide at 1 mM under UV irradiation of 5400 mW by HPLC-MS analysis
[21] = Dark toxicity against human U251 cells assessed as reduction in cell viability after 72 hrs by Cell-Titer Blue assay; assay type: cell-based, U-251
[22] = Photoactivation of prodrug assessed as decay time constant for 4-(4-(2-fluoropyridin-3-yl)phenyl)-N-(4-hydroxyphenyl)butanamide release at 1 mM under UV irradiation of 5400 mW after 1 min by HPLC-MS analysis
[23] = organism: Homo sapiens; assay: Disruption of microtubule organization in human U251 cells assessed as changes in cell morphology at 5 uM after 24 hrs by DAPI staining based immunofluorescence assay
[24] = organism: Sus scrofa; assay: Inhibition of porcine brain tubulin polymerization at 50 uM by fluorescence assay
[25] = organism: Sus scrofa; assay: Inhibition of colchicine binding to porcine brain tubulin after 90 mins by fluorescence assay
[26] = Induction of apoptosis in patient-derived RN1 cells at 5 uM after 48 hrs by Annexin V staining based assay (reference value: 8.1%); assay type: functional, Homo sapiens
[27] = tested on: U-251; assay: Cytotoxicity against human U251 cells assessed as reduction in cell viability after 72 hrs by Cell-Titer Blue assay; assay type: functional, cell-based; details: U-251, 72 h
[28] = organism: Homo sapiens; assay: Disruption of microtubule organization in human U251 cells at 5 uM after 24 hrs by DAPI staining based immunofluorescence assay; assay type: cell-based
[29] = Photostability of the compound at 1 mM under UV irradiation of 5400 mW after 20 mins by HPLC-MS analysis
[30] = Cytotoxicity against patient-derived RN1 cells assessed as reduction in cell viability after 72 hrs by Cell-Titer Blue assay; assay type: functional, cell-based; details: Homo sapiens, RN1, 72 h
[31] = tested on: U-251; assay: Cytotoxicity against human U251 cells assessed as reduction in cell viability at >40 uM after 72 hrs by Cell-Titer Blue assay; assay type: functional, cell-based
[32] = organism: Sus scrofa; assay: Inhibition of colchicine binding to porcine brain tubulin up to 60 uM after 90 mins by fluorescence assay

With `COc1cc(COC(=O)C(C)NC(=O)OC(C)(C)C)c([N+](=O)[O-])cc1OC` (stereo unspecified) the Drug metabolism [1] was “Metabolite_Detected” and the Activity [2] was “inactive”.

With `CC(=O)O[C@H]1C(=O)[C@@]2(C)[C@H]([C@H](OC(=O)c3ccccc3)[C@]3(O)C[C@H](OC(=O)[C@H](O)[C@@H](NC(=O)c4ccccc4)c4ccccc4)C(C)=C1C3(C)C)[C@]1(OC(C)=O)CO[C@@H]1C[C@@H]2O` the inhibition [3] was “inactive”.

For `COc1cc(COc2ccc(NC(=O)CCCc3ccc(-c4cccnc4F)cc3)cc2)c([N+](=O)[O-])cc1OC`, the Activity [4] was “Not Active”, the Drug metabolism [5] was 80% and the Activity [6] was 20.75%. The Activity [7] was 41.3%, the EC50 [8] was 2.1 µM and the Activity [9] was “Active”. For the same molecule, the EC50 [10] was 1.2 µM, the Activity [11] was “Not Active” and the Activity [12] was “Active”. The Activity [13] was 12.6%, the Activity [14] was “Not Active” and the Activity [15] was 0.5%. For the same molecule, the Activity [16] was “Not Active”, the Activity [17] was 36.95% and the inhibition [18] was “Active”. It also gave an EC50 at 72 h [19] of 37.4 µM, a TIME [20] greater than 0.0333 h and an EC50 at 72 h [21] of 72 µM. It also gave a TIME [22] of 0.0101 h.

For `O=C(CCCc1ccc(-c2cccnc2F)cc1)Nc1ccc(O)cc1`, the EC50 [8] was 1.4 µM, the Activity [23] was “Active” and the inhibition [24] was “Active”. For the same molecule, the EC50 [10] was 0.7 µM, the inhibition [25] was “Dose-dependent effect” and the Activity [26] was 47.8%. For the same molecule, the EC50 [27] was 1.3 µM, the Activity [28] was “Active” and the Stability [29] was “Stable”. It also gave an EC50 [30] of 0.3 µM.

With `O=C(CCCc1ccc(-c2cccnc2F)cc1)Nc1ccc(OCc2ccccc2)cc1` the Activity [31] was “inactive”.

With `COC(=O)Nc1nc2cc(C(=O)c3cccs3)ccc2[nH]1` the inhibition [32] was “Active”.

In the case of `CC[C@]1(O)C[C@@H]2CN(CCc3c([nH]c4ccccc34)[C@@](C(=O)OC)(c3cc4c(cc3OC)N(C)[C@H]3[C@@](O)(C(=O)OC)[C@H](OC(C)=O)[C@]5(CC)C=CCN6CC[C@]43[C@@H]65)C2)C1`, the inhibition [32] is reported as “inactive” and the inhibition [3] is reported as “Active”.
